pEC50: −log10 of the molar value. Active and inactive are the calls of the source. The calls are words filed in the database; no cut-off is given here.
How the values were obtained:
MCF7 [1] = assay: Ratio of ED50 for epothilone B to ED50 for compound for human MCF7 cells; assay type: functional
[2] = Cytotoxicity against human NCI/ADR cells by phototoxicity labeling study; assay type: functional; details: NCI/ADR-RES, light or radiation study, read-out: ED50 (the source's name)
[3] = Ratio of ED50 for epothilone B to ED50 for compound for induction of microtubule assembly by photoaffinity labeling study
[4] = Ratio of ED50 for epothilone B to ED50 for compound for human NCI/ADR cells; assay type: functional
[5] = Induction of microtubule assembly by photoaffinity labeling study in presence of epothilone B
MCF7 [6] = assay: Cytotoxicity against human MCF7 cells by […] labeling study; assay type: functional; details: MCF7, light or radiation study, read-out: ED50 (the source's name)
[7] = Induction of microtubule assembly by photoaffinity labeling study

Row | Structure (SMILES) | Ratio ED50 (MCF7 [1]) | pEC50 [2] | Ratio ED50 [3] | Ratio ED50 [4] | Activity [5] | pEC50 (MCF7 [6]) | ED50 [7]
1 | C/C(=C\c1csc(C)n1)[C@@H]1C/C=C\CCC[C@H](C)[C@H](O)[C@@H](C)C(=O)[C@](C)(CCOC(=O)c2cccc(N=[N+]=[N-])c2)[C@@H](O)CC(=O)O1 | 632 | 6.00 | 5.1 | 833 | inactive | 5.92 | 5.1 µM
2 | C/C(=C\c1csc(C)n1)[C@@H]1C[C@@H]2O[C@]2(C)CCC[C@H](C)[C@H](O)[C@@H](C)C(=O)C(C)(C)[C@@H](O)CC(=O)O1 [PATUPILONE] |  | 8.92 |  |  |  | 8.82 | 1 µM
